Columns and labels:
[1] = target: T1, GABA-A receptor; alpha-1/beta-3/gamma-2 (Homo sapiens, UniProt P14867+P18507+P28472); assay: Displacement of [3H]EBOB from recombinant Homo sapiens (human) GABA alpha1beta3gamma2 receptor; format: protein-complex assay
T1 sequence (P14867 whole entry): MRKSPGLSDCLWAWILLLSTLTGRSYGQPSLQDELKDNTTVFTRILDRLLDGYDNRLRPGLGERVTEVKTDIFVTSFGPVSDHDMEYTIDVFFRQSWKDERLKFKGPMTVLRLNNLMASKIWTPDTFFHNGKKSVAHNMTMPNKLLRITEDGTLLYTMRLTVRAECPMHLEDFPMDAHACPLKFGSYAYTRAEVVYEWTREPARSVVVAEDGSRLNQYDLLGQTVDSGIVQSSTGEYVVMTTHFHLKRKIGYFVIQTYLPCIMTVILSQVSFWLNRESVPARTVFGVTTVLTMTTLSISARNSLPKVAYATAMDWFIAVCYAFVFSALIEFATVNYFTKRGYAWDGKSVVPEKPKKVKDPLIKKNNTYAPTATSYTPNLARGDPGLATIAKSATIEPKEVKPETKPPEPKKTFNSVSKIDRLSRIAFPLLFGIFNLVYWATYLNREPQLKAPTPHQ
T1 sequence (P18507 whole entry): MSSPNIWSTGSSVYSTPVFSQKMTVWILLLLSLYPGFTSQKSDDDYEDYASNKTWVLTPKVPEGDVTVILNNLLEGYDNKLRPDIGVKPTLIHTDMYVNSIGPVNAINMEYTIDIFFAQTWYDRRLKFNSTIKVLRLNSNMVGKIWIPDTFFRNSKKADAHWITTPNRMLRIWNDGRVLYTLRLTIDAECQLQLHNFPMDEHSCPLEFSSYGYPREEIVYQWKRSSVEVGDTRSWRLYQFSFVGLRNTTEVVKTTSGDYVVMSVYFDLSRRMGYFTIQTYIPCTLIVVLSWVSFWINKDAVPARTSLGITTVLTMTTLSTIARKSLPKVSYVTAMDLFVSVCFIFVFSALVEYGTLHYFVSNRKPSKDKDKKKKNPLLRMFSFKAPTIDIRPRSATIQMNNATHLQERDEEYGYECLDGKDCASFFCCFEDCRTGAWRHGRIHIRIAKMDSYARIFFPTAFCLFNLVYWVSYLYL
T1 sequence (P28472 whole entry): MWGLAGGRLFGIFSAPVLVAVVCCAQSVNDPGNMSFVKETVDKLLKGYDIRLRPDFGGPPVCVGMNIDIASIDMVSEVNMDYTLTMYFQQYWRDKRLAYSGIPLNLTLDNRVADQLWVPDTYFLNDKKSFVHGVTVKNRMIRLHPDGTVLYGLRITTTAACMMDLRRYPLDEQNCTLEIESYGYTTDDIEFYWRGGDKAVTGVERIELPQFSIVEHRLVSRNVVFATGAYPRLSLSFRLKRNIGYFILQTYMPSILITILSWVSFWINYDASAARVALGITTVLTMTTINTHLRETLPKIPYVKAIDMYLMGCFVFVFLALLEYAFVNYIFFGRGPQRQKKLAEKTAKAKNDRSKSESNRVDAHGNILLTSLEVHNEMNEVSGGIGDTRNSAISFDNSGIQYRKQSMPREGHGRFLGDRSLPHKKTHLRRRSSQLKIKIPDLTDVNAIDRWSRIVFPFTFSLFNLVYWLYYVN

[2] = target: T2, GABA receptor subunit (Musca domestica, UniProt Q75NA5); assay: Inhibition of Musca domestica (house fly) GABA receptor
T2 sequence (Q75NA5 whole entry): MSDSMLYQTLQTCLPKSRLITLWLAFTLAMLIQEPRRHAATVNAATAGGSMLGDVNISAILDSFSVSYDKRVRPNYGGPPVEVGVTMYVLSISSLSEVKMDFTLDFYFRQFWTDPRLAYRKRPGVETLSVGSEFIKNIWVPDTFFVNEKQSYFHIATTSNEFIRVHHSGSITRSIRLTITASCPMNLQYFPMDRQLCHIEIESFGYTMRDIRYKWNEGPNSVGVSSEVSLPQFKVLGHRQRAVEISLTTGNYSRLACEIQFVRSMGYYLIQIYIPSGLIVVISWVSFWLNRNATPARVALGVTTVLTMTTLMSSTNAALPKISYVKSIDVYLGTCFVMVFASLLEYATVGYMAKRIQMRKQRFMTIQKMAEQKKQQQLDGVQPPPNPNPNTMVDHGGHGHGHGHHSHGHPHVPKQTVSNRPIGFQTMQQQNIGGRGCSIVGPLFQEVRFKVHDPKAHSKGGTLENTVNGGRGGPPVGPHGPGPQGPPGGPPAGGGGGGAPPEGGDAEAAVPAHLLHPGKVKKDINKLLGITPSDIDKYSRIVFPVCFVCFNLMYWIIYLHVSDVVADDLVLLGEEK

[3] = target: GABA-A receptor; alpha-6/beta-3/gamma-2 (Homo sapiens, UniProt P18507+P28472+Q16445); assay: Displacement of [3H]EBOB from recombinant Homo sapiens (human) GABA alpha6beta3gamma2 receptor; format: protein-complex assay
[4] = test system: Musca domestica; assay: Insecticidal activity against topically-treated Musca domestica (house fly); format: ADME, organism-based; conditions: topical
[5] = target: T3, GABA-A receptor alpha-1/beta-3 (Homo sapiens, UniProt P14867+P28472); assay: Displacement of [3H]EBOB from recombinant Homo sapiens (human) GABA alpha1beta3 receptor
T3 sequence (P14867 whole entry): T1 sequence (P14867 whole entry)
T3 sequence (P28472 whole entry): T1 sequence (P28472 whole entry)

[6] = target: T4, GABA A receptor alpha-1/beta-1/gamma-2 (Homo sapiens, UniProt P14867+P18505+P18507); assay: Displacement of [3H]EBOB from recombinant Homo sapiens (human) GABA alpha1beta1gamma2 receptor; format: protein-complex assay
T4 sequence (P14867 whole entry): T1 sequence (P14867 whole entry)
T4 sequence (P18507 whole entry): T1 sequence (P18507 whole entry)
T4 sequence (P18505 whole entry): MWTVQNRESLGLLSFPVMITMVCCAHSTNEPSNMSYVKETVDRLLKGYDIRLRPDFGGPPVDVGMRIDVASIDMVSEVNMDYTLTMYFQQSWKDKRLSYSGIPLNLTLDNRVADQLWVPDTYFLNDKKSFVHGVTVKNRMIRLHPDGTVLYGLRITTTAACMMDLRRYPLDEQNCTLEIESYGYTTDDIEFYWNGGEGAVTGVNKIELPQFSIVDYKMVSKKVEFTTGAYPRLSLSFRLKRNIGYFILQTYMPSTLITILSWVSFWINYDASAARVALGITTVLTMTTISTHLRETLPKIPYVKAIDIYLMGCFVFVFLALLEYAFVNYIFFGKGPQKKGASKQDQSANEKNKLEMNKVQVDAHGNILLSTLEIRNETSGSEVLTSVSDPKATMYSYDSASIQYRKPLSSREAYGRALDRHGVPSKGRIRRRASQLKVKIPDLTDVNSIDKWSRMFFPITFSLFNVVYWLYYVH

[7] = Inhibition of recombinant Homo sapiens (human) GABA receptor
[8] = Toxicity in ip dosed Mus musculus (mouse); format: organism-based; conditions: in vivo
[9] = target: T5, Gamma-aminobutyric acid receptor subunit alpha-1/ beta-1 (Homo sapiens, UniProt P14867+P18505); assay: Displacement of [3H]EBOB from recombinant Homo sapiens (human) GABA alpha1beta1 receptor; format: protein-complex assay
T5 sequence (P14867 whole entry): T1 sequence (P14867 whole entry)
T5 sequence (P18505 whole entry): T4 sequence (P18505 whole entry)

[10] = Selectivity ratio of IC50 for recombinant human GABA receptor to IC50 for housefly GABA receptor
[11] = target: Gamma-aminobutyric acid receptor subunit alpha-6/beta-3 (Homo sapiens, UniProt P28472+Q16445); assay: Displacement of [3H]EBOB from recombinant Homo sapiens (human) GABA alpha6beta3 receptor; format: protein-complex assay
[12] = target: T6, Gamma-aminobutyric acid receptor subunit beta-3 (Homo sapiens, UniProt P28472); assay: Displacement of [3H]EBOB from recombinant Homo sapiens (human) GABA beta3 receptor
T6 sequence (P28472 whole entry): T1 sequence (P28472 whole entry)

[13] = target: Gamma-aminobutyric acid receptor subunit rho-1 (Homo sapiens, UniProt P24046); assay: Displacement of [3H]EBOB from recombinant Homo sapiens (human) GABA rho1 receptor
Gamma-aminobutyric acid receptor subunit rho-1, sequence (P24046 whole entry): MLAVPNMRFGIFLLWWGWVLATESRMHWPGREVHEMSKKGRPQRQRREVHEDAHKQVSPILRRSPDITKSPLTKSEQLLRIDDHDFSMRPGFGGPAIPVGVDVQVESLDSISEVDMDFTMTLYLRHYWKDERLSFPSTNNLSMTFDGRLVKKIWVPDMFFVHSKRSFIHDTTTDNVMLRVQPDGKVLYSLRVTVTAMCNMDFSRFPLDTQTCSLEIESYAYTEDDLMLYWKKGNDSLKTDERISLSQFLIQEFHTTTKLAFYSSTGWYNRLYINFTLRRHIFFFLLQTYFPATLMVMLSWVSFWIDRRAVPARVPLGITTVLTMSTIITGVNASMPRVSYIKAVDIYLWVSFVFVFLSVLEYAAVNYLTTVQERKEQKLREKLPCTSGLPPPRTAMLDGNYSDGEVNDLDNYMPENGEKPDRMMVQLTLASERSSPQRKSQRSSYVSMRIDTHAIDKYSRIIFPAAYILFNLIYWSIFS

GABA-A receptor; alpha-6/beta-3/gamma-2, sequence (Q16445 whole entry, one chain of several): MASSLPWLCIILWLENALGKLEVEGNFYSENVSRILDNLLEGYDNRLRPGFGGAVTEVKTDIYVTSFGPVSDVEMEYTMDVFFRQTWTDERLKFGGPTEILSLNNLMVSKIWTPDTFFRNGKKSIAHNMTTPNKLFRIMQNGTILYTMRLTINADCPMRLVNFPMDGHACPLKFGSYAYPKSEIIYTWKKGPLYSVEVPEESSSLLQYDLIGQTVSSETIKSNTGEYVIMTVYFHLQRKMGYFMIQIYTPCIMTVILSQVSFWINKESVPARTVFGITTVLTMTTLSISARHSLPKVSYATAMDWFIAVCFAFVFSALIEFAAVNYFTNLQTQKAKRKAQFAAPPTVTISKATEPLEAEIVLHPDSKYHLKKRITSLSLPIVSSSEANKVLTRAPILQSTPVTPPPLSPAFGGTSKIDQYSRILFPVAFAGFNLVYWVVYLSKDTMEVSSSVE
Gamma-aminobutyric acid receptor subunit alpha-6/beta-3, sequence (Q16445 whole entry, one chain of several): as above

Row | SMILES | IC50 [1] | IC50 [2] | IC50 [3] | LD50 [4] | IC50 [5] | IC50 [6] | IC50 [7] | LD50 [8] | IC50 [9] | Ratio IC50 [10] | IC50 [11] | IC50 [12] | IC50 [13]
1 | O=S1OC[C@@H]2[C@H](CO1)[C@@]1(Cl)C(Cl)=C(Cl)[C@]2(Cl)C1(Cl)Cl (stereo partly drawn) [ALPHA-ENDOSULFAN] | 16 nM | 10 nM | 4.6 nM | 5.5 mg/kg | 8.3 nM | 40 nM | 7.3 nM | 10 mg/kg | 117 nM | 0.73 | 4 nM | 0.47 nM | 800 nM
2 | C#Cc1ccc(C23OCC(CCC)(CO2)CO3)cc1 |  |  |  |  |  |  |  |  |  | 5 |  |  | 
3 | N#Cc1nn(-c2c(Cl)cc(C(F)(F)F)cc2Cl)c(N)c1[S+]([O-])C(F)(F)F (stereo not given) [FIPRONIL] | 33 nM | 2.3 nM | 17 nM | 0.25 mg/kg | 28 nM | 2800 nM | 2500 nM | 32 mg/kg | 7700 nM | 1090 | 3.1 nM | 2.4 nM | > 10000 nM
4 | Cl[C@H]1[C@H](Cl)[C@@H](Cl)[C@@H](Cl)[C@H](Cl)[C@H]1Cl [LINDANE] | 21 nM | 11 nM | 4.9 nM | 5.5 mg/kg | 12 nM | 67 nM | 306 nM | 40 mg/kg | 112 nM | 28 | 1.3 nM | 0.9 nM | 91 nM

Source: ChEMBL document CHEMBL3045560, “Insecticide interactions with -aminobutyric acid and nicotinic receptors: predictive aspects of structural models” (J Pestic Sci, 2008)
